Legend:
Male C57B16 mice [1] = assay: Tissue ICP-AES biodistribution of Mn; assay type: in vivo
Procedure: Tissue ICP-AES: Biodistribution of 5 was measured in tissues 15 and 90 min after injection of (1) 0.07 mmol/kg 5 plus 2.2 mmol/kg D-glucose, (2) 0.07 mmol/kg 5 plus saline, and (3) 0.035 mmol/kg MnCl plus 2.2 mmol/kg D-glucose into male C57B16 mice. The tissue weights were recorded and digested in aqua regia for 24 hours, the digested tissue was heated to 120° C. until evaporated and re-suspended in 0.5 M HCl. For ICP-AES, Mn, Fe, and Zn concentrations were obtained by comparing to a known metal standard.

[2] = Clearance route and integrity by LC-MS of urine and bile; assay type: in vivo
Male C57B16 mice [3] = assay: In vivo T1-weighted MRI of glucose-stimulated zinc secretion
Procedure: In Vivo MRI: Male C57B16 mice were imaged at 4.7 T and 9.4 T using Varian/Agilent scanners. Mice were anesthetized with 2-5% isofluorane/oxygen mixture and their body temperature was maintained at 37° C. using heated airflow. Two ge3d T1-weighted scans were obtained as a baseline (TE/TR=1.69/3.35 ms, Average=4, θ=20°). Mice then received 0.07 mmol/kg 5 i.v. plus 2.2 mmol/kg D-Glucose i.p. and sequential 3d T1-weighted scans were obtained for 90 minutes until clearance of the agent was evident. Images were analyzed using ImageJ, organs of interest were identified, and ROIs were measured and normalized to muscle ROIs within the same slice and time point. The change in MR signal intensity is reported as a percentage compared to pre-injection scans.

[4] = Relaxometry (T1 and T2 at 1.5 T); assay type: physicochemical; settings: 37° C.
Procedure: Relaxometry: Varying concentrations of 5 (0-1 mM) were incubated with 2 mM ZnCl2, and 0.6 mM human serum albumin (HSA) at 37° C. T1 and T2 measurements were obtained at 1.5 T using a Bruker relaxometer. T1 was obtained by an inversion recovery sequence (IR, first pulse=10 ms, TR=10 s, TI=10-2500 ms), and T2 by a Carr-Prucell-Meiboom-Gill (CPMG, TE/TR=5/10000 ms, NE=700).

[5] = 0.035 mmol/kg i.v. plus 2.2 mmol/kg D-glucose i.p.

| Molecule | Mn accumulation in the heart (Male C57B16 mice [1]; [5]) | excretion route (tissue biodistribution of Mn) (Male C57B16 mice [1]; [5]) | Mn accumulation in the heart (Male C57B16 mice [1]; 0.07 mmol/kg i.v. plus 2.2 mmol/kg D-glucose i.p.) | Mn content in tissues (biodistribution) (Male C57B16 mice [1]; 15 minutes post-injection, 0.07 mmol/kg i.v. plus 2.2 mmol/kg D-glucose i.p.) | Mn content in tissues (biodistribution) (Male C57B16 mice [1]; 90 minutes post-injection, 0.07 mmol/kg i.v. plus 2.2 mmol/kg D-glucose i.p.) | integrity during hepatobiliary clearance ([2]; LC-MS of bile) | integrity after renal filtration ([2]; LC-MS of urine) | MRI signal enhancement in organs (Male C57B16 mice [3]; 0.07 mmol/kg i.v. plus D-glucose 2.2 mmol/kg i.p., 4 minutes post injection, 9.4 T) | MRI signal enhancement in organs (Male C57B16 mice [3]; control, D-glucose not co-injected) | longitudinal relaxivity r1 ([4]; "off" configuration (no Zn(II)/HSA)) [mM⁻¹ s⁻¹] | longitudinal relaxivity r1 ([4]; "on" configuration bound to Zn^2+ and HSA (2 mM ZnCl2, 0.6 mM HSA)) [mM⁻¹ s⁻¹] |
| --- | --- | --- | --- | --- | --- | --- | --- | --- | --- | --- | --- |
| [Cl][Mn][Cl] [MnCl2, reference compound] | Accumulation in the heart | excreted renally and more overwhelmingly via the hepatobiliary system | – | – | – | – | – | – | – | – | – |
| Mn—N-(6-methyl)-(2-(bis(pyridin-2-ylmethyl)amino)ethyl)-nicotinamido-N,N′ N′-trans-1,2-cyclohexylenediamine-triacetate [Compound 5] | – | – | no accumulation in the heart | found primarily in the kidneys, liver, pancreas, and prostate | greatly diminished in kidney and liver tissues but accumulated in the spleen and in the prostate | degraded during hepatobiliary clearance | excreted as an intact complex after renal filtration | Enhancement in the pancreas, prostate, kidneys, and liver | marginal enhancement in the prostate and pancreas | 3.5 | 14.1 |
